{"source": "paper PMC11500415", "about": "“Chemical inhibition of stomatal differentiation by perturbation of the master-regulatory bHLH heterodimer via an ACT-Like domain” (Nature Communications, 2024)", "key": {"SPCH": {"target": "T1, SPCH (Arabidopsis thaliana, UniProt Q700C7)", "T1 construct": "ΔNSPCH (98-364); made in house; host or cells: E. coli BL21", "T1 sequence (Q700C7 98-364)": "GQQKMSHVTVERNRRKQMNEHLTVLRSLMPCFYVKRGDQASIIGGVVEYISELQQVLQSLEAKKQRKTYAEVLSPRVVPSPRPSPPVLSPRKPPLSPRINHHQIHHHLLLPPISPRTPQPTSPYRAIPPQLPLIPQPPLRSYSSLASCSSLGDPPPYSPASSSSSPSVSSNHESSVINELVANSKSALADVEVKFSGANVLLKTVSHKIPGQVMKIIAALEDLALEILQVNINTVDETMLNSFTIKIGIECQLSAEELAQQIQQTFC", "assay": "BLI direct binding", "parameters": "species or system A. thaliana"}, "SCRM": {"target": "T2, SCRM (Arabidopsis thaliana, UniProt Q9LSE2)", "T2 construct": "SCRM (1-494); made in house; host or cells: E. coli BL21", "T2 sequence (Q9LSE2 1-494)": "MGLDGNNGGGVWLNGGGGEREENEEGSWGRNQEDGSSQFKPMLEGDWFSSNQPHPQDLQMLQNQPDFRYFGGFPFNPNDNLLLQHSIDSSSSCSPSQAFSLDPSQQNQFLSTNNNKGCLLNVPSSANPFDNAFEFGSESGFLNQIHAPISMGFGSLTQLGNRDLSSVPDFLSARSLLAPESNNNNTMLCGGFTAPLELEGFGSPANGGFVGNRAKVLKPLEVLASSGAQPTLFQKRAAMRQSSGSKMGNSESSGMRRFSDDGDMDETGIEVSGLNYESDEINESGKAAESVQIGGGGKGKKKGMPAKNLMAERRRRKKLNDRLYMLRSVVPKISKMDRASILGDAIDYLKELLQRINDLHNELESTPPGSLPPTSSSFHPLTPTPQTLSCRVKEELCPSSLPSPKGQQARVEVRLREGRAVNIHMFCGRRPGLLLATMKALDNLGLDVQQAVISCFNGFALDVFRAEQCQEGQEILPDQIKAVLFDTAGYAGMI", "assay": "BLI direct binding", "parameters": "species or system A. thaliana"}, "[1]": {"conditions": "SPCH, Conc. (µM) 3.12, rep-1, rep-2"}, "[2]": {"conditions": "SPCH, Conc. (µM) 6.25, rep-1, rep-2"}, "[3]": {"conditions": "SPCH, Conc. (µM) 12.5, rep-1, rep-2"}, "[4]": {"conditions": "SPCH, Conc. (µM) 50, rep-1, rep-2"}, "[5]": {"conditions": "SPCH, Conc. (µM) 100, rep-1, rep-2"}, "[6]": {"conditions": "SPCH, Conc. (µM) 200, rep-1, rep-2"}}, "note": "“And” between values parts separate entries of the source, which are not always exact repeats. Identical values can stand only once. Like-named read-outs stand apart in the source and are kept apart here.", "data": [{"smiles": "O=C1C(c2ccccc2)=NC(NS(=O)(=O)c2ccccc2)(c2ccccc2)N1S(=O)(=O)c1ccccc1", "note": "(stereo not shown) [Stomidazolone]", "values": [{"measurement": "Kd", "setting": "SPCH; BLI steady state, SPCH, read-out: KD (SS)", "value": "85.2 ± 6.8", "unit": "µM"}, {"measurement": "Kd", "setting": "SPCH; BLI, SPCH, read-out: KD", "value": "75.6 ± 0.7", "unit": "µM"}, {"measurement": "kdis", "setting": "SPCH; SPCH loaded on Anti-GST sensor, fit per sensor, Stomid Conc. (mM) 200-3.12, rep-1, rep-2", "value": "0.319 s⁻¹ and 0.323 s⁻¹ and 0.32 s⁻¹ and 0.325 s⁻¹ and 0.33 s⁻¹ and 0.326 s⁻¹"}, {"measurement": "kon", "setting": "SPCH; SPCH loaded on Anti-GST sensor, fit per sensor, Stomid Conc. (µM) 200-3.12, rep-1, rep-2", "value": "4280 M⁻¹ s⁻¹ and 4310 M⁻¹ s⁻¹ and 4320 M⁻¹ s⁻¹ and 4400 M⁻¹ s⁻¹ and 4290 M⁻¹ s⁻¹ and 4340 M⁻¹ s⁻¹ and 4360 M⁻¹ s⁻¹"}, {"measurement": "Kd", "setting": "SPCH; SPCH loaded on Anti-GST sensor, fit per sensor, Stomid Conc. (µM) 200-3.12, rep-1, rep-2, read-out: KD", "value": "75.4 µM and 76.8 µM and 74.1 µM and 73.1 µM and 74.8 µM and 72.6 µM and 75.2 µM and 76.7 µM and 76.9 µM and 74.4 µM"}, {"measurement": "RMax", "setting": "SPCH; [1]", "value": "0.03 and 0.0213"}, {"measurement": "Req/Rmax(%)", "setting": "SPCH; [1]", "value": 100, "unit": "%"}, {"measurement": "Response", "setting": "SPCH; [1]", "value": "0.0312 and 0.0213"}, {"measurement": "RMax", "setting": "SPCH; [2]", "value": "0.062 and 0.0321"}, {"measurement": "Req/Rmax(%)", "setting": "SPCH; [2]", "value": "97% and 100%"}, {"measurement": "Response", "setting": "SPCH; [2]", "value": "0.0608 and 0.0321"}, {"measurement": "RMax", "setting": "SPCH; [3]", "value": "0.067 and 0.0781"}, {"measurement": "Response", "setting": "SPCH; [3]", "value": "0.065 and 0.0781"}, {"measurement": "RMax", "setting": "SPCH; [4]", "value": "0.135 and 0.1621"}, {"measurement": "Req/Rmax(%)", "setting": "SPCH; [4]", "value": 89, "unit": "%"}, {"measurement": "Response", "setting": "SPCH; [4]", "value": "0.1334 and 0.1621"}, {"measurement": "RMax", "setting": "SPCH; [5]", "value": "0.235 and 0.2711"}, {"measurement": "Response", "setting": "SPCH; [5]", "value": "0.233 and 0.2711"}, {"measurement": "RMax", "setting": "SPCH; [6]", "value": "0.335 and 0.323"}, {"measurement": "Req/Rmax(%)", "setting": "SPCH; [6]", "value": 98, "unit": "%"}, {"measurement": "Response", "setting": "SPCH; [6]", "value": "0.3311 and 0.323"}, {"measurement": "koff", "setting": "SPCH; read-out: kdis(1/s), SPCH loaded on Anti-GST sensor, fit per sensor, Stomid Conc. (mM) 200-3.12, rep-1, rep-2", "value": 0.329, "unit": "s⁻¹"}, {"measurement": "kon", "setting": "SPCH; read-out: kon(1/Ms), SPCH loaded on Anti-GST sensor, fit per sensor, Stomid Conc. (mM) 200-3.12, rep-1, rep-2", "value": 4370, "unit": "M⁻¹ s⁻¹"}, {"measurement": "Kd", "setting": "SCRM; BLI steady state, read-out: KD (SS)", "value": "68.5 ± 5.6", "unit": "µM"}, {"measurement": "Kd", "setting": "SCRM; BLI, read-out: KD", "value": "65.5 ± 0.6", "unit": "µM"}]}]}
